# Reference: PubChem BioAssay (NCI)
#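 Step 1: Grow cells in 96-well plates. Step 2: Expose to compound for 48 hours at 5 concentrations. Step 3: Interpolate endpoints linearly; if unreached, use highest concentration. GI50: concentration for 50% inhibition of growth. TGI: total growth inhibition.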
# What was measured:
# Assay in all cases: NCI tumour cell line growth inhibition, 48 h
# [1] = tested on: 786-0 renal
# [2] = tested on: A498 renal
# [3] = tested on: A549 NSCLC
# [4] = tested on: ACHN renal
# [5] = tested on: BT-549 breast
# [6] = tested on: CAKI-1 renal
# [7] = tested on: CCRF-CEM leukemia
# [8] = tested on: COLO 205 colon
# [9] = tested on: DU-145 prostate
# [10] = tested on: EKVX NSCLC
# [11] = tested on: HCC-2998 colon
# [12] = tested on: HCT-116 colon
# [13] = tested on: HCT-15 colon
# [14] = tested on: HL-60(TB) leukemia
# [15] = tested on: HOP-62 NSCLC
# [16] = tested on: HOP-92 NSCLC
# [17] = tested on: HS 578T breast
# [18] = tested on: HT29 colon
# [19] = tested on: IGROV1 ovarian
# [20] = tested on: K-562 leukemia
# [21] = tested on: KM12 colon
# [22] = tested on: LOX IMVI melanoma
# [23] = tested on: M14 melanoma
# [24] = tested on: MALME-3M melanoma
# [25] = tested on: MCF7 breast
# [26] = tested on: MDA-MB-231 breast
# [27] = tested on: MDA-MB-435
# [28] = tested on: MOLT-4 leukemia
# [29] = tested on: NCI-H226 lung
# [30] = tested on: NCI-H23 lung
# [31] = tested on: NCI-H460 lung
# [32] = tested on: NCI-H522 lung
# [33] = tested on: NCI/ADR-RES ovarian
# [34] = tested on: OVCAR-3 ovarian
# [35] = tested on: OVCAR-4 ovarian
# [36] = tested on: OVCAR-5 ovarian
# [37] = tested on: OVCAR-8 ovarian
# [38] = tested on: PC-3 prostate
# [39] = tested on: RPMI-8226 leukemia
# [40] = tested on: RXF 393 renal
# [41] = tested on: SF-268 CNS
# [42] = tested on: SF-295 CNS
# [43] = tested on: SF-539 CNS
# [44] = tested on: SK-MEL-2 melanoma
# [45] = tested on: SK-MEL-28 melanoma
# [46] = tested on: SK-MEL-5 melanoma
# [47] = tested on: SK-OV-3 ovarian
# [48] = tested on: SN12C renal
# [49] = tested on: SNB-19 CNS
# [50] = tested on: SNB-75 CNS
# [51] = tested on: SR leukemia
# [52] = tested on: SW-620 colon
# [53] = tested on: T-47D breast
# [54] = tested on: TK-10 renal
# [55] = tested on: U251 CNS
# [56] = tested on: UACC-257 melanoma
# [57] = tested on: UACC-62 melanoma
# [58] = tested on: UO-31 renal
structure (smiles),measurement,setting,value
CNC(=O)c1cc(Oc2ccc3nc(NC(=O)c4cc(C(F)(F)F)cc(C(F)(F)F)c4)sc3c2)ccn1,GI50,[1],2.55 µM
same,TGI,[1],8.07 µM
same,GI50,[2],1.45 µM
same,TGI,[2],4.51 µM
same,GI50,[3],3.99 µM
same,TGI,[3],14.6 µM
same,GI50,[4],3.26 µM
same,TGI,[4],11.8 µM
same,GI50,[5],3.05 µM
same,TGI,[5],12.4 µM
same,GI50,[6],2.75 µM
same,TGI,[6],10.7 µM
same,GI50,[7],3.47 µM
same,TGI,[7],> 100 µM
same,GI50,[8],2.82 µM
same,TGI,[8],8.21 µM
same,GI50,[9],3.69 µM
same,TGI,[9],15.9 µM
same,GI50,[10],3.43 µM
same,TGI,[10],23.3 µM
same,GI50,[11],6.63 µM
same,TGI,[11],24.7 µM
same,GI50,[12],3.41 µM
same,TGI,[12],11.9 µM
same,GI50,[13],3.97 µM
same,TGI,[13],25.1 µM
same,GI50,[14],2.49 µM
same,TGI,[14],5.11 µM
same,GI50,[15],3.36 µM
same,TGI,[15],10.8 µM
same,GI50,[16],1.68 µM
same,TGI,[16],7.21 µM
same,GI50,[17],3.15 µM
same,TGI,[17],13.3 µM
same,GI50,[18],3.85 µM
same,TGI,[18],16.8 µM
same,GI50,[19],4.26 µM
same,TGI,[19],27 µM
same,GI50,[20],3.53 µM
same,TGI,[20],> 100 µM
same,GI50,[21],2.7 µM
same,TGI,[21],11 µM
same,GI50,[22],3.39 µM
same,TGI,[22],15.1 µM
same,GI50,[23],3.61 µM
same,TGI,[23],19.4 µM
same,GI50,[24],2.03 µM
same,TGI,[24],6.65 µM
same,GI50,[25],3.37 µM
same,TGI,[25],18 µM
same,GI50,[26],2.88 µM
same,TGI,[26],6.63 µM
same,GI50,[27],3.28 µM
same,TGI,[27],20.4 µM
same,GI50,[28],2.62 µM
same,TGI,[28],12.4 µM
same,GI50,[29],4.15 µM
same,TGI,[29],17.4 µM
same,GI50,[30],3.37 µM
same,TGI,[30],17.7 µM
same,GI50,[31],3.83 µM
same,TGI,[31],14.6 µM
same,GI50,[32],2.82 µM
same,TGI,[32],8.77 µM
same,GI50,[33],3.67 µM
same,TGI,[33],19.1 µM
same,GI50,[34],2.32 µM
same,TGI,[34],6.64 µM
same,GI50,[35],3.12 µM
same,TGI,[35],27.2 µM
same,GI50,[36],4.23 µM
same,TGI,[36],25 µM
same,GI50,[37],3.06 µM
same,TGI,[37],13 µM
same,GI50,[38],2.53 µM
same,TGI,[38],12.8 µM
same,GI50,[39],2.42 µM
same,TGI,[39],> 100 µM
same,GI50,[40],2.79 µM
same,TGI,[40],8.37 µM
same,GI50,[41],2.66 µM
same,TGI,[41],17 µM
same,GI50,[42],2.56 µM
same,TGI,[42],10.5 µM
same,GI50,[43],3.14 µM
same,TGI,[43],14.8 µM
same,GI50,[44],2.32 µM
same,TGI,[44],6.7 µM
same,GI50,[45],3.76 µM
same,TGI,[45],43.7 µM
same,GI50,[46],1.68 µM
same,TGI,[46],3.63 µM
same,GI50,[47],2.52 µM
same,TGI,[47],7.98 µM
same,GI50,[48],3.22 µM
same,TGI,[48],12.5 µM
same,GI50,[49],3.76 µM
same,TGI,[49],22.8 µM
same,GI50,[50],3.13 µM
same,TGI,[50],14.8 µM
same,GI50,[51],3.37 µM
same,TGI,[51],15 µM
same,GI50,[52],7.56 µM
same,TGI,[52],63.8 µM
same,GI50,[53],3.04 µM
same,TGI,[53],9.17 µM
same,GI50,[54],3.37 µM
same,TGI,[54],13.3 µM
same,GI50,[55],3.65 µM
same,TGI,[55],13.7 µM
same,GI50,[56],2.89 µM
same,TGI,[56],8.12 µM
same,GI50,[57],2.71 µM
same,TGI,[57],12.1 µM
same,GI50,[58],2.19 µM
same,TGI,[58],8.95 µM
NC(=O)c1ncn(C2OC(CO)C(O)C2O)n1 (stereo not given),GI50,[1],> 100 µM
same,TGI,[1],> 100 µM
same,GI50,[2],> 100 µM
same,TGI,[2],> 100 µM
same,GI50,[3],62 µM
same,TGI,[3],> 100 µM
same,GI50,[4],59.8 µM
same,TGI,[4],> 100 µM
same,GI50,[5],> 100 µM
same,TGI,[5],> 100 µM
same,GI50,[6],57.2 µM
same,TGI,[6],> 100 µM
same,GI50,[7],4.73 µM
same,TGI,[7],49.6 µM
same,GI50,[8],55.2 µM
same,TGI,[8],> 100 µM
same,GI50,[9],39.6 µM
same,TGI,[9],> 100 µM
same,GI50,[10],70.2 µM
same,TGI,[10],> 100 µM
same,GI50,[11],> 100 µM
same,TGI,[11],> 100 µM
same,GI50,[12],45.1 µM
same,TGI,[12],> 100 µM
same,GI50,[13],38.4 µM
same,TGI,[13],> 100 µM
same,GI50,[14],> 100 µM
same,TGI,[14],> 100 µM
same,GI50,[15],> 100 µM
same,TGI,[15],> 100 µM
same,GI50,[16],> 100 µM
same,TGI,[16],> 100 µM
same,GI50,[17],> 100 µM
same,TGI,[17],> 100 µM
same,GI50,[18],14.2 µM
same,TGI,[18],> 100 µM
same,GI50,[19],> 100 µM
same,TGI,[19],> 100 µM
same,GI50,[20],51.9 µM
same,TGI,[20],> 100 µM
same,GI50,[21],> 100 µM
same,TGI,[21],> 100 µM
same,GI50,[22],53.6 µM
same,TGI,[22],> 100 µM
same,GI50,[23],> 100 µM
same,TGI,[23],> 100 µM
same,GI50,[24],> 100 µM
same,TGI,[24],> 100 µM
same,GI50,[25],36.4 µM
same,TGI,[25],> 100 µM
same,GI50,[26],> 100 µM
same,TGI,[26],> 100 µM
same,GI50,[27],> 100 µM
same,TGI,[27],> 100 µM
same,GI50,[28],52.9 µM
same,TGI,[28],> 100 µM
same,GI50,[29],> 100 µM
same,TGI,[29],> 100 µM
same,GI50,[30],> 100 µM
same,TGI,[30],> 100 µM
same,GI50,[31],64.2 µM
same,TGI,[31],> 100 µM
same,GI50,[32],> 100 µM
same,TGI,[32],> 100 µM
same,GI50,[33],54.6 µM
same,TGI,[33],> 100 µM
same,GI50,[34],74.9 µM
same,TGI,[34],> 100 µM
same,GI50,[35],> 100 µM
same,TGI,[35],> 100 µM
same,GI50,[36],> 100 µM
same,TGI,[36],> 100 µM
same,GI50,[37],45.4 µM
same,TGI,[37],> 100 µM
same,GI50,[38],59.6 µM
same,TGI,[38],> 100 µM
same,GI50,[39],80.5 µM
same,TGI,[39],> 100 µM
same,GI50,[40],> 100 µM
same,TGI,[40],> 100 µM
same,GI50,[44],> 100 µM
same,TGI,[44],> 100 µM
same,GI50,[45],> 100 µM
same,TGI,[45],> 100 µM
same,GI50,[46],> 100 µM
same,TGI,[46],> 100 µM
same,GI50,[47],> 100 µM
same,TGI,[47],> 100 µM
same,GI50,[48],85 µM
same,TGI,[48],> 100 µM
same,GI50,[51],> 100 µM
same,TGI,[51],> 100 µM
same,GI50,[52],22.8 µM
same,TGI,[52],> 100 µM
same,GI50,[53],49.2 µM
same,TGI,[53],> 100 µM
same,GI50,[54],> 100 µM
same,TGI,[54],> 100 µM
same,GI50,[56],> 100 µM
same,TGI,[56],> 100 µM
same,GI50,[57],> 100 µM
same,TGI,[57],> 100 µM
same,GI50,[58],> 100 µM
same,TGI,[58],> 100 µM
